Experimental data reported in paper PMC7617456, “Cryptosporidium lysyl-tRNA synthetase inhibitors define the interplay between solubility and permeability required to achieve efficacy” (Science translational medicine, 2024).
≈ marks a conversion by molar mass, not a printed value. Like-named read-outs stand apart in the source and are kept apart here.

Assays:
[1] = Hepatocyte intrinsic clearance, mouse; assay type: in vitro ADME; conditions: mouse hepatocytes
[2] = Aqueous (kinetic) solubility by UHPLC; assay type: physicochemical; conditions: 25 °C, aqueous buffer, kinetic from dmso stock, PBS pH 7.4, UHPLC
Procedure: As previously described.(27) […]
samples were prepared by adding 5 µL stock to PBS pH 7.4 (195 µL). This solution was mixed […]
The solubility test samples were […]
vacuum ﬁ ltered (Millipore Multiscreen HTS ﬁ lter, 96-well format) to remove any undissolved […]
material. The ﬁ ltrate was analyzed for dissolved drug compound using a truncated UHPLC […]
methodology. A calibration solution was prepared for each test compound. The 10 mM stock […]
solution was diluted in DMSO to give a 500 µM solution. This was further diluted with 50:50 […]
acetonitrile:water to give a 50 µM solution. Aliquots (0.2, 2.0, and 5.0 µL) of this 50 µM solution were injected onto the UHPLC system, and the areas of the resultant peaks were […]
integrated to produce a calibration line. Aliquots of the test sample ﬁ ltrate (0.4 and 5.0 µL) […]
were injected onto the UHPLC system and the resultant test compound peak areas quantiﬁ ed […]
using the calibration line. […]

[3] = test system: C. hominis; assay: C. hominis growth inhibition in HCT-8 co-culture (image-based); conditions: Cryptosporidium hominis, HCT-8, 48 h, read-out: C. hominis EC50
Procedure: Cryptosporidium in vitro inhibition (Vermont and Dundee)
Compounds were prepared in 100% DMSO and added at the time of infection (NLuc) or 3 hours post infection (imaging assays). Compounds were prepared at 1% final concentration DMSO in culture. Parasites were quantified at 48 hours post infection. NanoLuciferase was measured using a GloMax Discovery, Promega.
A Nikon Ecl ipse Ti2000 epifluorescence microscope with an automated stage was programmed to focus on the center of each well and take a 3×3 composite image using an EXi blue fluorescence microscopy camera (QImaging) with a 20X objective (NA = 0.45). Nuclei and parasite images were separately exported as .tif files, and parasites and host cells were counted using custom NIH ImageJ macros as reported previously.(29) Dose−response curves were

[4] = target: CYP450 3A4 (Homo sapiens, UniProt P08684); assay: CYP450 inhibition 3A4; assay type: in vitro ADME
Sequence of CYP450 3A4 (P08684 whole entry): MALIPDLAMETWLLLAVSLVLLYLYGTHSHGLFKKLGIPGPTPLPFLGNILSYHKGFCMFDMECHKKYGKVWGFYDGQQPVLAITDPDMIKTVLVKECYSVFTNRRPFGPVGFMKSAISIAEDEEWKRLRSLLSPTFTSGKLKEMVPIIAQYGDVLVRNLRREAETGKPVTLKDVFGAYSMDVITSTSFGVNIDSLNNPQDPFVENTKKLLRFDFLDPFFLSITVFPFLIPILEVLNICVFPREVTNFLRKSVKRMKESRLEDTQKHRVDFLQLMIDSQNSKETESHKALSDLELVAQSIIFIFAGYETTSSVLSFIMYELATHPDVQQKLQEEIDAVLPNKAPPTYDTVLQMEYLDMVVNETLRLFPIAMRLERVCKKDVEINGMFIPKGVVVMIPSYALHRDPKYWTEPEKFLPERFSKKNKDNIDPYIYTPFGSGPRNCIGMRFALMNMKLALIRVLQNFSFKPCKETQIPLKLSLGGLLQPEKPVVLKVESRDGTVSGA
Procedure: (§1) CYP450 inhibition (Dundee)
(§2) As previously described.(31)
(§3) DDD489 and DDD508 were evaluated for their ability to induce reverse mutations both in the presence and absence of S9 mix at the histidine locus in the genome of four strains of Salmonella typhimurium (TA98, TA100, TA1535, and TA97a) and at the tryptophan locus in the genome of Escherichia coli WP2 uvrA in a mini-Ames study conducted at WuXi App Tec […]
(§4) hERG inhibition (WuXi App Tec)
(§5) DDD489 and DDD508 were evaluated for their effects on cloned hERG potassium channels stably expressed in Chinese Hamster Ovary (CHO) cells using manual patch-clamp technique in a hERG inhibition assay conducted at WuXi App Tec (Suzhou).
(§6) Mitochondrial toxicity (Cyprotex)
(§7) DDD489 and DDD508 were evaluated for their effects on mitochondrial function in a functional mitochondrial toxicity assay using Seahorse XFe96 flux analyser conducted at […]
(§8) 44 screen safety panel (Eurofins)
(§9) DDD489 was evaluated for off-target effects in a SafetyScreen44 panel at Eurofins Cerep.
(§10) All regulated procedures, at the University of Dundee, on living animals were carried out under the authority of a project license issued by the Home Office under the Animals (Scientific Procedures) Act 1986, as amended in 2012 (and in compliance with EU Directive EU/2010/63). […]

[5] = Plasma protein binding, dog; assay type: in vitro ADME; conditions: read-out: PPB (d) (converted)
[6] = Plasma protein binding, human; assay type: in vitro ADME; conditions: read-out: PPB (h) (converted)
[7] = Plasma protein binding, bovine; assay type: in vitro ADME; conditions: calf plasma, PPB assay, read-out: fraction unbound (fu)
[8] = NOD SCID Gamma mice at MED 30 mg/kg, first and last days of treatment
From the text: Figure S6. Blood concentration time profiles for late lead compounds in infected mice.
Mean free blood concentration time profiles following oral administration of late lead compounds to NOD SCID Gamma (A a n d B ) and IFN-Gamma KO (C and D) mice twice daily for 7 days as described in Fig. 1C and Fig. 4A) respectively. Data are mean ± SD (3 mice per group). Blood samples were collected on the first day (squares) and last day (circles) of compound dosing (Day 7 and 13 PI for NOD SCID Gamma, Day 6 and 13 for IFN-Gamma KO). Total drug concentrations were corrected for fraction unbound (fu) in PPB assay […]
mg/kg) was administered to NOD SCID Gamma mice. (B) DDD508 (10 mg/kg) was administered to NOD SCID Gamma mice. Blood concentrations were scaled to 30 mg/kg for comparison, assuming dose linearity. (C) DDD489 (50 mg/kg) was administered to IFN-Gamma KO mice. (D) DDD508 (50 mg/kg) was administered to IFN-Gamma KO mice.
(1 picture or pasted object on this page, not shown here)

[9] = Hepatocyte intrinsic clearance, dog; assay type: in vitro ADME; conditions: dog hepatocytes
[10] = test system: HepG2; assay: HepG2 in vitro cytotoxicity; assay type: cell-based, human; conditions: for EC50: Homo sapiens, HepG2, cytotoxicity; for Cellular selectivity: ratio of mean HepG2/C. parvum EC50
[11] = test system: C. parvum; assay: microbe, parasite or virus in culture; assay type: cell-based, Cryptosporidium parvum; conditions: for EC90: HCT-8, read-out: C. parvum EC90
[12] = target: CYP450 1A2 (Homo sapiens, UniProt P05177); assay: CYP450 inhibition 1A2; assay type: in vitro ADME
Sequence of CYP450 1A2 (P05177 whole entry): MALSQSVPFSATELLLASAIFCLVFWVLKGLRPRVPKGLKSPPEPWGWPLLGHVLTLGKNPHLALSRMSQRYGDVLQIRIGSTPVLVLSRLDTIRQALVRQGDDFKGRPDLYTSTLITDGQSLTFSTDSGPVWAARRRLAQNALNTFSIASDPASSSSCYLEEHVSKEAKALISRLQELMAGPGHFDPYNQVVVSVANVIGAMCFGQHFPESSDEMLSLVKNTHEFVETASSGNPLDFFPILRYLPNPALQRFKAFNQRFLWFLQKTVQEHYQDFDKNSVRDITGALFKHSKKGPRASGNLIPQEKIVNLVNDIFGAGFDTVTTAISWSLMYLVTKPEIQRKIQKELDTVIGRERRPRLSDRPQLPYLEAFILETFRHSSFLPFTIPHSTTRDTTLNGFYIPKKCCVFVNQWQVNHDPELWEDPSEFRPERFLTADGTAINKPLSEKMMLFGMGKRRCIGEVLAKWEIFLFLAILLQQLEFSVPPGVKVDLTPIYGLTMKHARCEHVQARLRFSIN
Procedure: as §1, §2, §3, §4, §5, §6, §7, §8, §9, §10

[13] = FaSSIF solubility; assay type: physicochemical; conditions: Fasted State Simulated Intestinal Fluid
[14] = test system: Salmonella typhimurium (TA98, TA100, TA1535, and TA97a) and Escherichia coli WP2 uvrA; assay: Mini-Ames; assay type: cell-based; conditions: presence and absence of S9 mix
[15] = Hepatocyte intrinsic clearance, rat; assay type: in vitro ADME; conditions: rat hepatocytes
[16] = Cryptosporidium parvum, HCT-8, 48 h, read-out: C. parvum EC50, co-cultured with HCT-8 cells for 48 hrs
[17] = read-out: C. parvum EC50, co-cultured with HCT-8 cells for 48 hrs

SMILES | Heps CLi (m) [1] [mL/min/g] | solubility at 24 h [2] [µM] | EC50 [3] [nM] | IC50 [4] [nM] | fraction unbound [5] | fraction unbound [6] | fraction unbound [7] | free blood concentration relative to EC90 [8] | Heps CLi (d) [9] [mL/min/g] | EC50 [10] [nM] | Cellular selectivity [10] [fold] | EC50 [11, 16] [nM] | EC90 ([11]; Cryptosporidium parvum) [nM] | EC50 [11, 17] [nM] | IC50 [12] [nM] | solubility [13] [µM] | Mini-Ames (4 strains ± S9) [14] | Heps CLi (r) [15] [mL/min/g]
Nc1nc2c(c(C(F)(F)F)n1)C(=O)N(CC1CCCC(C(F)(F)F)C1)C2 (stereo not drawn) [DDD489] | 10 | 21 (≈ 8.03 µg/mL) | 40 | > 100000 | 0.3 | 0.23 | 0.26 | only above the EC90 for around two hours | 1.8 | 18000 | 450 | 43 | 100 | 40 | 40000 | 48 (≈ 18.4 µg/mL) | Negative | 1.9
O=C(NCC1(O)CCCCC1)c1cc(=O)c2cc(O)ccc2o1 [DDD508] | 3.7 | 184 (≈ 58.4 µg/mL) | 100 | > 100000 | 0.52 | 0.42 | 0.53 | only above the EC90 for around two hours | 1.2 | 18000 | 140 | 132 | 380 | 130 | > 100000 | 325 (≈ 103 µg/mL) | Negative | 1.1
